Laboratory results as given in US4851411A, “5-monoaryl as.-triazin-3-ones substituted in 2-position, and their use as medicaments” (Pierre Fabre Medicament, priority 1986, dated 1989).
Structures can show the parent of a compound that is named as a salt.

Assay: Solubility
Type: physicochemical
[1] = aqueous dilute acids, in the hot

Row | solubility in ether | solubility in water (water) | solubility in alcohols | solubility in chloroform (chloroform) | solubility in methylene chloride (methylene chloride) | solubility in benzene | Structure (SMILES) | also measured
1 | insoluble | insoluble |  |  |  |  | CCOc1ccc(-c2cnn(CC(C)=O)c(=O)n2)cc1 [Example 24, 2-acetonyl 3-oxo 5-p-ethoxyphenyl as.-triazine] | solubility in alcohols in the hot (in the hot): soluble; solubility in chlorinated solvents (chlorinated solvents): Soluble
2 |  | insoluble | rather soluble | Poorly soluble | Poorly soluble |  | COc1ccc(-c2cnn(C(CCO)C(=O)O)c(=O)n2)cc1 (stereo not shown) [Example 18, 2-[3-(3-carboxy 1-propanol)] 3-oxo 5-p-methoxyphenyl as.-triazine] | 
3 |  | Insoluble | Insoluble |  |  |  | COc1ccc(-c2cnn(CC(=O)c3ccc(C)cc3)c(=O)n2)cc1 [Example 38, 2-p.methylphenacyl 3-oxo 5-p.methoxyphenyl as triazine] | solubility in acetic acid: Soluble
4 | Insoluble | rather soluble |  | Insoluble |  | Insoluble | CC(=O)Cn1ncc(-c2ccc(O)cc2)nc1=O [Example 2, 2-N-acetonyl 3-oxo 5-p-hydroxyphenyl as.-triazine] | solubility in alcohols in the hot (in the hot): Soluble in the hot, recrystallizes in the cold; solubility in dilute aqueous bases (dilute aqueous bases): soluble
5 |  | Insoluble | Insoluble |  |  |  | CCC(=O)Cn1ncc(-c2ccc(OC)cc2)nc1=O [Example 41, 2-(oxo-2' butyl) 3-oxo 5-p.methoxyphenyl as triazine] | solubility in acetic acid: Soluble
6 | insoluble | insoluble |  | Soluble | Soluble |  | COc1ccc(-c2cnn(CCCCCN3CCN(c4cccc(Cl)c4)CC3)c(=O)n2)cc1 [Example 15, 2-N (ε-pentyl m-chlorophenyl piperazine) 3-oxo 5-p-methoxyphenyl as.-triazine] | 
7 | insoluble | insoluble | Soluble | Soluble | Soluble | Soluble | COc1ccc(-c2cnn(CCCN(C)C)c(=O)n2)cc1 [Example 17, 2-γ dimethylaminopropyl 3-oxo 5-p-methoxyphenyl as.-triazine] | solubility in aqueous dilute acids (aqueous dilute acids): Soluble
8 |  | insoluble |  |  |  |  | COc1ccc(-c2cnn(CC(=O)c3ccccc3)c(=O)n2)cc1 [Example 37, 2-Phenacyl 3-oxo 5-p.methoxyphenyl as triazine] | solubility in acetic acid: Soluble
9 |  | insoluble |  | Soluble | Soluble |  | COc1ccc(-c2cnn(CCCC(=O)c3ccc(F)cc3)c(=O)n2)cc1 [Example 33, 2-N-(γp-fluorobutyrophenone) 3-oxo 5-p-methoxyphenyl as.-triazine] | 
10 | poorly soluble | Insoluble |  | Soluble | Soluble | poorly soluble | COc1ccc(-c2cnn(CC(=O)C(C)C)c(=O)n2)cc1 [Example 5, 2-(3'-methyl 2'-one butyl) 3-oxo 5-p-methoxyphenyl as.-triazine] | 
11 | insoluble | insoluble |  | Soluble | Soluble |  | Cc1ccc(-c2cnn(CCCN3CCN(c4cccc(Cl)c4)CC3)c(=O)n2)cc1 [Example 14, 2-γ(m-chlorophenylpiperazine)-propyl 3-oxo 5-p-methylphenyl as.-triazine hydrochloride] | 
12 | insoluble | insoluble |  | insoluble |  |  | Cc1ccc(C2C=NN(C(c3ccccc3)C(O)c3ccccc3)C(=O)N2)cc1 (stereo not drawn) [Example 29, N-2[α(1,2-diphenylethan 1-ol)] 3-oxo 4,5-dihydro 5-p-methylphenyl as.-triazine] | solubility in alcohols in the hot (in the hot): Soluble
13 |  | insoluble |  | insoluble | Soluble |  | COc1ccc(-c2cnn(C(c3ccccc3)c3ccccc3)c(=O)n2)cc1 [Example 30, 2-N-diphenylmethyl 3-oxo 5-p-methoxyphenyl as.-triazine] | solubility in alcohols in the hot (in the hot): Soluble
14 |  |  |  | Poorly soluble | Poorly soluble |  | COc1ccc(-c2cnn(CCN3CCN(c4cccc(Cl)c4)CC3)c(=O)n2)cc1 [Example 10, 2 β ethyl(metachlorophenyl)piperazine 3-oxo 5-p-methoxyphenyl as.-triazine] | solubility in aqueous dilute acids in the hot [1]: Soluble
15 |  | insoluble | Soluble | Soluble |  | Soluble | CCOC(=O)CCCn1ncc(-c2ccc(C)cc2)nc1=O [Example 35, 2-N-ethylbutyrate 3-oxo 5-p-methylphenyl as.-triazine] | 
16 |  | Insoluble | Insoluble |  |  |  | COc1ccc(-c2cnn(CC(=O)c3ccc(Cl)cc3Cl)c(=O)n2)cc1 [Example 39, 2-(dichloro-2,4 phenacyl) 3-oxo 5-p.methoxyphenyl as triazine] | solubility in acetic acid: Soluble
17 | insoluble | insoluble |  | Soluble | Soluble |  | CC(=O)Cn1ncc(-c2ccccc2)nc1=O [Example 7, 2-acetonyl 3-oxo 5-phenyl as.-triazine] | 
18 |  | insoluble | Soluble | Soluble |  |  | COc1ccc(-c2cnn(CCCCCN3CCC(O)CC3)c(=O)n2)cc1 [Example 28, N 2-[ε-pentyl (4-hydroxypiperidine)] 3-oxo 5-p-methoxyphenyl as.-triazine] | 
19 | insoluble | insoluble |  | Soluble | Soluble |  | Cc1ccc(-c2cnn(CCCCN3CCN(c4cccc(Cl)c4)CC3)c(=O)n2)cc1 [Example 13, 2-N-δ butyl (m-chlorophenyl piperazine) 3-oxo 5-p-methylphenyl as.-triazine] | solubility in alcohols in the hot (in the hot): Soluble; solubility in aqueous dilute acids in the hot [1]: Soluble
20 | insoluble | insoluble |  | Soluble | Soluble |  | COc1ccc(-c2cnn(CC(C)=O)c(=O)n2)c(OC)c1 [Example 25, 2-acetonyl 3-oxo 5-(2',4'-dimethoxy)phenyl as.-triazine] | 
21 | insoluble | insoluble |  | Soluble | Soluble | poorly soluble | COc1ccc(-c2cnn(CCN3CCN(c4cccc(C(F)(F)F)c4)CC3)c(=O)n2)cc1 [Example 16, 2-β ethyl (m-trifluoromethylphenyl) piperazine 3-oxo 5-p-methoxyphenylas.-triazine] | 
22 | insoluble |  |  | poorly soluble | rather soluble | insoluble | COc1ccc(-c2cnn(CCO)c(=O)n2)cc1 [Example 31, 2-ethanol 3-oxo 5-p-methoxyphenyl as.-triazine] | solubility in water in the hot (water, in the hot): Soluble
23 | insoluble | insoluble | insoluble |  |  |  | CC(=O)c1ccc(N2CCN(CCCn3ncc(-c4ccc(C)cc4)nc3=O)CC2)cc1 [Example 11, 2-γ propyl p-piperazinoacetophenone 3-oxo 5-methylphenyl as.-triazine] | solubility in alcohols in the hot (in the hot): Soluble; solubility in chloroform in the hot (chloroform, in the hot): Soluble; solubility in methylene chloride in the hot (methylene chloride, in the hot): Soluble
24 |  | insoluble |  | Soluble | Soluble |  | Cc1ccc(-c2cnn(C(C(=O)c3ccccc3)c3ccccc3)c(=O)n2)cc1 (stereo not shown) [Example 36, 2-N-desyl 3-oxo 5-p-methylphenyl as.-triazine] | solubility in alcohols in the hot (in the hot): Soluble
25 | insoluble | insoluble |  | Soluble | Soluble |  | COc1ccc(C2C=NN(CCCN3CCN(c4cccc(Cl)c4)CC3)C(=O)N2)cc1 (stereo not shown) [Example 12, 2-N-γ propyl(m-chlorophenylpiperazine) 3-oxo 4,5-dihydro 5-p-methoxyphenyl as.-triazine] | solubility in alcohols in the hot (in the hot): Soluble; solubility in aqueous dilute acids in the hot [1]: Soluble
26 | insoluble | insoluble | Poorly soluble | Poorly soluble |  | Poorly soluble | Cc1ccc(-c2cnn(C(CCO)C(=O)O)c(=O)n2)cc1 (stereo not shown) [Example 19, 2-[3-(3-carboxy 1-propanol)] 3-oxo 5-p-methylphenyl as.-triazine] | 
27 | poorly soluble | insoluble |  | Soluble | Soluble | poorly soluble | Cc1ccc(-c2cnn(C3CCOC3=O)c(=O)n2)cc1 (stereo not shown) [Example 20, 2-butyrolactone 3-oxo 5-p-methylphenyl as.-triazine] | 
28 | insoluble | insoluble |  | Soluble | Soluble |  | CC(=O)Cn1ncc(-c2ccc(C)cc2)nc1=O [Example 6, 2-acetonyl 3-oxo 5-p-methylphenyl as.-triazine] | 

Row | Structure (SMILES) | solubility in ether | solubility in water (water) | solubility in alcohols | solubility in chloroform (chloroform) | solubility in methylene chloride (methylene chloride) | solubility in benzene | also measured
29 | CC(=O)Cn1ncc(-c2ccc(OC3CCOC3=O)cc2)nc1=O (stereo not shown) [Example 3, 2-acetonyl 3-oxo 5-p-(alphaoxy γ butryolactone)phenyl as.-triazine] | Insoluble | Insoluble |  | Insoluble |  | Insoluble | 
